According to US11092532B2, “Method and device for label-free, high throughput holographic screening and enumeration of tumor cells in blood” (Texas Tech University System, priority 2017, dated 2021):

Columns and labels:
[1] = system: breast cancer cell line MCF-7; assay: dose-dependent cytotoxicity, viability analysis using standard epifluorescence microscopy; assay type: cell-based; details: FIG. 8B
breast cancer cells MCF7 = assay: inline-DHM cytometry for drug response analysis; assay type: cell-based

For `COc1cccc2c1C(=O)c1c(O)c3c(c(O)c1C2=O)C[C@@](O)(C(=O)CO)C[C@@H]3O[C@H]1C[C@H](N)[C@H](O)[C@H](C)O1` [doxorubicin], the “cytotoxicity (viability of cells)” value [1] was “dose-dependent cytotoxicity”, the “maximum intensity (Imax) distribution of focused cell image” value (“maximum intensity (Imax) distribution” for short) (breast cancer cells MCF7; MCF-7 cells treated with 0.0001 μM doxorubicin, FIG. 9B) was “some are affected and their peak intensity shifts to lower values” and the “maximum intensity (Imax) distribution” value (breast cancer cells MCF7; MCF-7 cells treated with 0.01 μM doxorubicin, FIG. 9C) was “the number of cells showing lower intensity (Imax) increases”. For the same compound, the “maximum intensity (Imax) distribution” value (breast cancer cells MCF7; MCF-7 cells treated with 0.1 μM doxorubicin, FIG. 9D) was “the number of cells showing lower intensity (Imax) increases”.
